Tested on: primary breast tumor
Experiment: neoadjuvant prospective TOP trial: pathological complete response to anthracyclines (epirubicin) monotherapy
Assay type: in vivo, human
Procedure: One hundred and forty-nine patients were included in the prospective TOP trial. Out of these patients, 89 received 4 cycles of anthracyclines every 3 weeks, 59 patients received 6 cycles of anthracyclines administered every 2 weeks (dose-dense scheme) and one was not treated according to the protocol due to ineligibility.
The neoadjuvant prospective “TOP” (Trial of Principle) trial was conducted at different European hospitals and coordinated by the Institut Jules Bordet. This study is registered on the clinical trials site of the US National Cancer Institute website http://clinicaltrials.gov/ct2/show/NCT00162812?term=NCT00162812&rank=1. One hundred and forty-nine patients have been included in this trial. Anthracyclines (Epirubicin) monotherapy (100 mg/m2) was given as neo-adjuvant chemotherapy: every 3 weeks×4 cycles for early BC or every 2 weeks×6 cycles with Neulasta® 6 mg on day 2 for patients with inflammatory or locally advanced breast cancer. At completion of chemotherapy, every patient underwent surgery with axillary node sampling. After surgery, adjuvant docetaxel (100 mg/m2×4 cycles) and loco-regional irradiation were administered using standard criteria. This study was primarily designed for the identification of biomarkers of response to anthracyclines (epirubicin).
All patients underwent pretreatment core biopsies of the primary breast tumor before starting neo-adjuvant chemotherapy using a 14G needle. Two biopsies were embedded in OCT (Sakura), frozen in liquid nitrogen within 5 minutes and transferred to a −80° C. freezer. Two biopsies were fixed in formalin and embedded in paraffin. Both fixed and frozen samples were retrieved and stored at the Institut Jules Bordet in Brussels, where the TOP2A evaluations were carried out. Pathologic response was determined by microscopic examination of the excised tumor and nodes after completion of chemotherapy. Pathological complete response (pCR) was defined by the absence of residual invasive breast carcinoma (macro and microscopic) in the breast and in the axillary nodes. Persistence of in-situ carcinoma without invasive component was considered pCR.

COc1cccc2c1C(=O)c1c(O)c3c(c(O)c1C2=O)C[C@@](O)(C(=O)CO)C[C@@H]3O[C@H]1C[C@H](N)[C@@H](O)[C@H](C)O1 [anthracyclines, Epirubicin]
pathological complete response (pCR) rate (3-weekly scheme (every 3 weeks x 4 cycles)): 14% | proportion of patients who presented a pCR (HER2-negative patients (FISH)): 10% | proportion of patients who presented a pCR (HER2-positive patients (FISH)): 23% | pathological complete response (pCR) rate (all patients of the TOP trial, neo-adjuvant epirubicin monotherapy 100 mg/m2): 15% | pathological complete response (pCR) rate (dose-dense scheme (every 2 weeks x 6 cycles)): 16% | patients who responded to the anthracyclines therapy (pCR) (patients whose tumors had no TOP2A amplification (FISH)): 9% | patients who responded to the anthracyclines therapy (pCR) (patients with TOP2A amplified tumors (FISH)): 55%

Source: patent publication US20120065084A1, “METHODS AND TOOLS FOR PREDICTING THE EFFICIENCY OF ANTHRACYCLINES IN CANCER” (UNIVERSITE LIBRE DE BRUXELLES, priority 2010, published 2012)
